Values quoted from earlier work, collected in paper PMC12729893, “Untargeted UHPLC-HRMS Metabolomic Profiling of Cornus mas L. Fruits: Impact of Conventional and Emerging Extraction Methods on Phenolic Composition and Bioactivity” (Antioxidants, 2025).

Structure (SMILES)	α-glucosidase inhibition according to computational analysis (α-glucosidase)	α-amylase inhibition according to computational analysis (α-amylase)
O=c1oc2c(O)c(O)cc3c(=O)oc4c(O)c(O)cc1c4c23 [ellagic acid]	most effective inhibitors	most effective inhibitors
C[C@@H]1O[C@@H](OC[C@H]2O[C@@H](Oc3cc4c(O)cc(O)cc4[o+]c3-c3ccc(O)cc3)[C@H](O)[C@@H](O)[C@H]2O)[C@H](O)[C@H](O)[C@H]1O [pelargonidin 3-robinobioside]	most potent inhibitor	
